One assay has as its target wild type human IL-2 (Homo sapiens, UniProt P60568). The experiment in a line: SPR binding of compounds to immobilized wild type IL-2 (Examples 1-2). The note with it: for IL-2 wt Kd: immobilized wild type human IL-2. Background: SPR reads the build-up and loss of mass on a sensor chip optically.
The next assay concerns the target T1, Y31C-IL-2-SS -3 (Homo sapiens, UniProt P60568, Y51C).
T1 construct: made in house; host or cells: E. coli
As to the kind of experiment: SPR binding of compound to immobilized IL-2-SS-ligand complex (Examples 1-2). The following applies: immobilized substrate-SS-ligand complex Y31C-IL-2-SS -3. The procedure:
(§1) A CM5 sensor chip (Biacore-BR-1000-14) is docked in a Biacore 2000 SPR device, and the chip is then normalized using a standard Biacore protocol with 70% glycerol. The chip is next equilibrated in PBS for approximately 1 hr at a 20 μL/min flow rate. The dextran surface of the chip is activated through an NHS/EDC coupling. This activation is done using an amine coupling kit (Biacore—BR-100-50) containing N-hydroxysuccinimide (NHS 11.5 mg/mL) and N-ethyl-N′-(3-dimethylaminopropyl) carbodiimide hydrochloride (EDC 75 mg/mL). The two reagents are first mixed in a 1:1 ratio and then 35 μL of the mixture are injected at 5 mL/min. The chip is activated one flow cell at a time, and that flow cell is subsequently labeled with protein.
(§2) IL-2 cysteine mutants are expressed in E. coli cells and purified using standard procedures. The cysteine mutants are treated with 10 mM βME overnight to reduce the surface cysteine. The βME is removed and the protein-thiolate is placed in 100 mM HEPES buffer pH 7.4 (Nap-5 column, Pierce). […]
(§3) The protein-SS—ligand complex is next concentrated to 100 μM using a Millipore-UFV5BCCOO 5K NMWL membrane, 0.5 mL centrifugal filter and tube. […] After injection the change in RUs is measured by marking the RUs at t=0 and t=final and subtracting. […]
(§4) The dilution series are analyzed by BIAevaluation software version 3.0. […]

The target of a further assay is T2, Y31C-IL-2-SS -4 (Homo sapiens, UniProt P60568, Y51C).
T2 construct: made in house; host or cells: E. coli
T2 sequence (P60568 21-153 Y51C): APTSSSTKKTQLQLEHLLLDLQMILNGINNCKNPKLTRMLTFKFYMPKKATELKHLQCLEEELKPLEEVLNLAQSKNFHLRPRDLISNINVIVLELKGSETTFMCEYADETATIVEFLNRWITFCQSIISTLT
The assay is described as above. The following applies: immobilized substrate-SS-ligand complex Y31C-IL-2-SS -4. The protocol: as §1, §2, §3, §4

The target of another assay is T3, immobilized IL-2 (Homo sapiens, UniProt P60568).
T3 construct: made in house; host or cells: E. coli
T3 sequence (P60568 21-153): as the sequence (P60568 21-153 Y51C) above, with C31Y counted along it
The experiment in a line: Double ligand SPR on immobilized interleukin-2 (Examples 9-11). Type of assay: binding. The note with it: for Kd: Example 11, immobilized interleukin-2, read-out: apparent Kd in SPR experiments. The protocol: as §1, with “SPR device” for “SPR device,”, “and” for “and the chip is then”, “This coupling” for “This activation”, “mg/mL). First, the” for “mg/mL). The”, “are” for “are first”, “5 μL/min.” for “5 mL/min.”
IL-2 is expressed in E. coli cells and purified using standard procedures. Protein is then concentrated to 100 μM and the buffer is exchanged to 100 mM MES pH 5.75 (Nap-5 column, Pierce). A sensorgram is then run over the activated flow cell at 2,L/min of PBS. The IL-2 solution is then injected at 2 μL/min for 10 min. After injection the change in RUs is measured by marking the RUs at t=0 and t=final and subtracting. This gives the total RU change, which is related to the total mass of protein successfully coupled to the CM5 surface. The total mass will later be used to determine stoichiometry of binding. This procedure is then repeated with another arbitrary protein to create a measure for nonspecific binding. The arbitrary protein is immobilized on an adjacent cell. […] The sensorgram is then altered to flow across all four cells on the CM5 chip at 5 μL/min PBS. A solution of 1 M ethanolamine hydrochloride-NaOH pH 8.5 (Amine coupling kit, Biacore-BR-100-50) is injected at 5 μL/min for 7 min. Proteins are immobilized at densities of 100-160 fmol/mm^2. The chip is equilibrated overnight in PBS+0.05% azide+2% DMSO at 20 μL/min.
In this experiment, variable concentrations of a compound are tested at a constant concentration of another compound. The compound held constant is 2c, for example (structure shown in Example 2). To determine appropriate constant concentrations for 2c, a compound titration is first performed. Dilution series of the compounds are typically performed to produce seven solutions having final compound concentrations of 30 mM, 10 mM, 3.3 mM, 1.1 mM, 0.37 mM, 0.12 mM, and 0.041 mM; an eighth solution is a DMSO-only baseline. The compounds are then diluted into PBS+0.05% azide to final concentrations of 300 μM, 100 μM, 33 μM, 11 μM, 3.7 μM, 1.2 μM, 0.41 μM. The compound solutions are injected from lowest concentration to highest at 40 μL/min for 1 min. The SPR software method includes a 1 min wash before injection, the injection and then a 3 min wash after the injection.
These dilution series are analyzed by BIAevaluation software version 3.0. Sensorgrams are plotted for compound binding to the IL-2 labeled cell of the chip. The sensorgrams are modified by subtracting the sensorgrams for the appropriate compound dilutions over cell 1 (a blank cell). This subtraction step removes any RU changes that might occur due to non-specific interactions between the compound and the chip itself or refractive changes in the buffer. Finally, the eight sensorgrams produced from the compound dilution series are zeroed at the average of their starting RUs. Then the sensorgram produced by injecting DMSO only is subtracted to reveal the final sensorgrams used to determine relative binding.
To determine KdSPR for the compound, the compound concentration is plotted on the X-axis, while the fraction bound at the plateau of the injection is plotted on the Y-axis. The curve is then analyzed via non-linear regression analysis (Kaleidagraph, Synergy Software). […] The concentration chosen is where the RUs remain constant at the top of the binding curve and thus the IL-2:2c ratio is 1. For 2c, this concentration is 100 μM.
A second compound is then run, this time in both the presence and absence of 2c. […]

For a further assay, the target named is T4, K43C-IL-2-SS -2 (Homo sapiens, UniProt P60568, K63C).
T4 construct: made in house; host or cells: E. coli
T4 sequence (P60568 21-153 K63C): as the sequence (P60568 21-153 Y51C) above, with C31Y, K43C counted along it
The experiment in a line: SPR binding of compounds to immobilized IL-2-SS-ligand complex (Examples 1-2). The note with it: immobilized substrate-SS-ligand complex K43C-IL-2-SS -2. The procedure:
as §1, §2, §3, §4

Each structure is given as a SMILES string.

Sequence of wild type human IL-2 (P60568 21-153): as the sequence (P60568 21-153 Y51C) above, with C31Y counted along it
T1 sequence (P60568 21-153 Y51C): as the sequence (P60568 21-153 Y51C) above

For the molecule `COC(=O)[C@H](Cc1ccc(C=Cc2ccccc2)cc1)NC(=O)C[C@H]1CCCN(C(=N)N)C1` [Compound 2c], the Kd is 33 µM on wild type human IL-2 (immobilized wild type human IL-2, read-out: IL-2 wt Kd); 8 µM on Y31C-IL-2-SS -3; 30 µM on Y31C-IL-2-SS -4; 10 µM on immobilized IL-2.

As to `COCC(=O)N1CCc2c([nH]c3ccccc23)C1` [Compound 3c], on wild type human IL-2, the “IL-2 wt Kd” value is recorded as “Inactive”. Moreover, the Kd at K43C-IL-2-SS -2 was 250 µM; on immobilized IL-2 it was greater than 500 µM.

`COCN(C)C(=O)c1ccc(C(C)C)cc1` [Compound 4c]: on wild type human IL-2, the “IL-2 wt Kd” value is given as “Inactive”. This molecule yielded a Kd on K43C-IL-2-SS -2 of 210 µM. In addition, the “Kd,SPR IL-2” value at immobilized IL-2 (immobilized IL-2, no other compound) is “Inactive”.

Source of the values: patent publication US20030186464A1, “Surface plasmon resonance methods” (priority 2002, published 2003).
